Reference: US9694005B2, “Nonsteroidal and steroidal compounds with potent androgen receptor down-regulation and anti prostate cancer activity” (University of Maryland, Baltimore, priority 2013, dated 2017)
Where two headings read alike, the source gives them in different places.

How the values were obtained:
LNCaP cells = assay: Cell growth inhibition (MTT colorimetric assay), LNCaP; format: cell-based, human; settings: Homo sapiens
Protocol: (§1) Compounds were evaluated on their ability to inhibit LNCaP cell (androgen sensitive AR-mutant), C4-2B and CWR22Rv1 (CRPC cell lines) viability at 1 and 10 μM concentrations by the MTT assy.
(§2) The cells were seeded in 96-well plates (Corning Costar) at a density of 5×10^3 cells per well. Cells were allowed to adhere to the plate for 24 hours and then treated with various concentrations of compounds dissolved in 95% EtOH. Cells were treated for 7 days with renewal of test compound and media on day 4. On the 7th day, medium was renewed and MTT (3-(4,5-dimethylthiazol-2-yl)-2,5-diphenyl-2H-tetrazolium bromide) (Sigma, St Louis, Mo., USA) solution (0.5 mg MTT per ml of media) was added to the medium such that the ratio of MTT: medium was 1:10. The cells were incubated with MTT for 2 hours. The medium was then aspirated and DMSO was added to solubilize the violet MTT-formazan product. The absorbance at 562 nm was measured by spectrophotometry (Biotek Inc.).

[1] = system: LNCaP cell, C4-2B and CWR22Rv1; assay: Cell growth inhibition (MTT), anticancer activity, cell line not given; format: cell-based, human; settings: cell line not stated
Protocol: as §1

[2] = system: full length AR and the splice variants ARs; assay: AR down-regulation in CWR22Rv1 (FIGS. 9D, 9E, 9F); format: cell-based, human; settings: 9E and 9F
Protocol: (§3) In the experiments show in FIG. 9, LNCaP and CWR22Rv1 cells were treated VN/124-1 and analogs at varying time points and effects on significant cancer cells promoting genes investigated at the protein level.

AR protein = target: T1, AR protein (Homo sapiens, UniProt P10275, T878A); assay: Western blotting, AR protein levels in LNCaP cells; format: cell-based; settings: 15 μM of each compound for 24 h (FIG. 8)
T1 construct: Effect of compounds on suppression of AR protein levels in LNCaP cells; endogenous in cells; host or cells: LNCaP
T1 sequence (P10275 1-920 T878A): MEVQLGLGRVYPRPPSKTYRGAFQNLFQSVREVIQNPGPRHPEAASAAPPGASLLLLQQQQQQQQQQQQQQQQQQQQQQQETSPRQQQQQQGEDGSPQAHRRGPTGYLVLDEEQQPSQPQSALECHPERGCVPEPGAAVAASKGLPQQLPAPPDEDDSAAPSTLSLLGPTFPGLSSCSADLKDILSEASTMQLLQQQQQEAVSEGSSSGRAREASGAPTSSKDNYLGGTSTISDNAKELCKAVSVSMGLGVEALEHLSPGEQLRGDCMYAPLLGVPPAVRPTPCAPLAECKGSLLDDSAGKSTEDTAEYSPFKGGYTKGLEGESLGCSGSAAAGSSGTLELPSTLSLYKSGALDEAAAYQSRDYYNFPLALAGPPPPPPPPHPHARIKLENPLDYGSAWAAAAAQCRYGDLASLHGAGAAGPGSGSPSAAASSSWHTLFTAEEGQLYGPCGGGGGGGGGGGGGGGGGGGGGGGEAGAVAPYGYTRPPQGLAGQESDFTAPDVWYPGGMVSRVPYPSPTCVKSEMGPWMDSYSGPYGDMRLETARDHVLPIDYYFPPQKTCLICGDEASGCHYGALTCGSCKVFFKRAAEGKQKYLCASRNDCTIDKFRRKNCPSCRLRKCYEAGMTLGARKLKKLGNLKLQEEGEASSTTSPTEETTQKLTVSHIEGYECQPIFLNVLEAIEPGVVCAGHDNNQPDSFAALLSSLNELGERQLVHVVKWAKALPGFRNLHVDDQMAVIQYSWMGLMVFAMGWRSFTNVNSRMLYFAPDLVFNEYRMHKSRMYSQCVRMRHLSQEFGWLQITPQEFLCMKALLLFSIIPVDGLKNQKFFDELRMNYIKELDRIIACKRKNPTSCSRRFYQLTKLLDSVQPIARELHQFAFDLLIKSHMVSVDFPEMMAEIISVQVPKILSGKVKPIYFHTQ
Protocol: The ability of various compounds to down-regulate AR protein expressions was determined by western blotting.

CWR22Rv1 = assay: Cell growth inhibition (MTT colorimetric assay), CWR22Rv1; format: cell-based; settings: Homo sapiens
Protocol: as §1, §2

PC3 cells = assay: Cell migration of PC3 cells; format: cell-based, human; settings: 5 μM, after 12 hours; FIG. 10
[3] = system: N-Cadherin, AR3, Mnk1/2, MMP-2, Ezh2, Mc1-1, eIF4E phosphorylation in CWR22Rv1 cells; assay: Effects of compounds on oncogenes at the protein level, CWR22Rv1 cells; format: cell-based, human; settings: FIGS. 9B and 9G
[4] = system: PARP cleavage, CDC25c, Mnk2, Cyclin D1, Cox-2 and N-Cadherin in LNCaP cells; assay: Effects of compounds on oncogenes at the protein level, LNCaP cells; format: cell-based, human; settings: FIGS. 9A and 9C
Protocol: as §3

full length AR = assay: AR down-regulation (FIG. 9H); format: cell-based, human
[5] = LNCaP, 168 h, Steroidal VNPP compounds table, treated for 7 days, read-out: GI50 Values High Passage LNCaP
[6] = Table 10, LNCaP low passage, concentration required to inhibit cell growth by 50%, read-out: GI50 Values LNCaP (Low Passage)
[7] = LNCaP, 168 h, Non-steroidal VNPP compounds table, treated for 7 days, read-out: GI50 Values High Passage LNCaP
[8] = CWR22Rv1, 168 h, Non-steroidal VNPP compounds table, treated for 7 days
[9] = LNCaP, 168 h, Non-steroidal VNPP compounds table, treated for 7 days, read-out: GI50 Values Low Passage LNCaP
[10] = CWR22Rv1, 168 h, Steroidal VNPP compounds table, treated for 7 days
[11] = LNCaP, 168 h, Steroidal VNPP compounds table, treated for 7 days, read-out: GI50 Values Low Passage LNCaP
[12] = Table 10, LNCaP high passage, read-out: GI50 Values LNCaP (High Passage)

## CNC(=O)c1ccc(N2C(=S)N(c3ccc(C#N)c(C(F)(F)F)c3)C(=O)C2(C)C)cc1F [MDV3100, reference compound]
LNCaP cells; [5]
  GI50: 4.85 µM
LNCaP cells; [6]
  GI50: 4.85 µM

## C[C@]12CCC3c4ccc(O)cc4CCC3C1CC=C2n1cnc2ccccc21 (stereo partly drawn) [VNPP338]
[1]
  Anticancer activity (SAR statement): equal potent anticancer activity to compound VN/124-1
[2]
  AR down-regulation against full length AR and the splice variants ARs: showed activity (AR down-regulation)
AR protein
  AR down-regulating action (AR protein levels, western blot): potent AR down-regulating agents

## C[C@]12CCC3c4ccc(C(=O)O)cc4CCC3C1CC=C2n1cnc2ccccc21 (stereo partly drawn) [VNPP341]
[1]
  Anticancer activity (SAR statement): moderately acting
[2]
  AR down-regulation against full length AR and the splice variants ARs: showed activity (AR down-regulation)
AR protein
  AR down-regulating action (AR protein levels, western blot): AR up-regulators

## COc1cccc(-c2ccc(Cn3cnc4ccccc43)cc2)c1 [VNPP347B, 3-[4-(benzimidazolylmethyl)phenyl]-1-methoxybenzene]
LNCaP cells; [7]
  GI50: 4.41 µM
CWR22Rv1; [8]
  GI50: 14 µM

## N#Cc1cccc(-c2ccc(Cn3cnc4ccccc43)cc2)c1 [VNPP358, 3-[4-(benzimidazolylmethyl)phenyl]benzenecarbonitrile]
LNCaP cells; [7]
  GI50: 3.5 µM
LNCaP cells; [9]
  GI50: 3.71 µM
CWR22Rv1; [8]
  GI50: 10.5 µM

## c1cc(-c2ccc(Cn3cnc4ccccc43)cc2)cc(-c2nn[nH]n2)c1 [VNPP361, 5-{3-[4-(benzimidazolylmethyl)phenyl]phenyl}-1H-1,2,3,4-tetraazole]
other
  melting point: 231 to 233 °C

## c1cc(-c2ccc(CCn3cnc4ccccc43)cc2)cc(-c2nn[nH]n2)c1 [VNPP364, 5-{3-[4-(benzimidazolylethyl)phenyl]phenyl}-1H-1,2,3,4-tetraazole]
other
  melting point: 223 to 225 °C

## Oc1ccc2cc(-c3cccc(-n4cnc5ccccc54)c3)ccc2c1 [VNPP372/2, 6-(3-benzimidazolylphenyl)naphthalen-2-ol]
LNCaP cells; [7]
  GI50: 6.09 µM
LNCaP cells; [9]
  GI50: 5.77 µM
CWR22Rv1; [8]
  GI50: 8.91 µM

## C[C@]12CC[C@H](OC(=S)n3ccnc3)CC1=CCC1C2CC[C@]2(C)C(n3cnc4ccccc43)=CCC12 (stereo partly drawn) [VNPP397, 3β-(1H-imidazole-1-thiocarboxylate)-17-(1H-benzimidazol-1-yl)androsta-5,16-diene]
LNCaP cells; [5]
  GI50: 9.57 µM
CWR22Rv1; [10]
  GI50: 7.52 µM

## CO[C@H]1CC[C@@]2(C)C(=CC[C@@H]3[C@@H]2CC[C@]2(C)C(n4cnc5ccccc54)=CC[C@@H]32)C1 [VNPP412, 3β-(methoxy)-17-(1H-benzimidazol-1-yl) androsta-5,16-diene]
LNCaP cells; [5]
  GI50: 8.71 µM
CWR22Rv1; [10]
  GI50: 7.5 µM

## C[C@]12CC[C@H](OCc3ccncc3)CC1=CC[C@@H]1[C@@H]2CC[C@]2(C)C(n3cnc4ccccc43)=CC[C@@H]12 [VNPP414, 3β-(pyridine-4-ylmethoxy)-17-(1H-benzimidazol-1-yl) androsta-5,16-diene]
PC3 cells
  Migration of PC3 cells: profoundly inhibit migration
LNCaP cells; [5]
  GI50: 2.45 µM
LNCaP cells; [11]
  GI50: 0.87 µM
LNCaP cells; [12]
  GI50: 2.45 µM
LNCaP cells; [6]
  GI50: 0.87 µM
[3]
  Phosphorylation of eIF4E: downregulated
  Protein expression of N-Cadherin, AR3, Mnk1/2, MMP-2, Ezh2, Mc1-1: decreased
[4]
  Expression of CDC25c, Mnk2, Cyclin D1, Cox-2 and N-Cadherin: reduced
  PARP cleavage (signature of apoptosis): significant increase
CWR22Rv1; [10]
  GI50: 3.24 µM
CWR22Rv1; CWR22Rv1, Table 10
  GI50: 3.24 µM

## COc1ccc(S(=O)(=O)Nc2cccc(-n3cnc4ccccc43)c2)cc1 [VNPP431, (3-benzimidazolylphenyl)[(4-methoxyphenyl)sulfonyl]amine]
LNCaP cells; [7]
  GI50: 3.14 µM
LNCaP cells; [9]
  GI50: 5.23 µM
CWR22Rv1; [8]
  GI50: 4.78 µM

## C[C@]12CC[C@H](n3cnc4ccccc43)CC1=CC[C@@H]1[C@@H]2CC[C@]2(C)C(n3cnc4ccccc43)=CC[C@@H]12 [VNPP433 (A2), 3β-(1H-benzimidazol-1-yl)-17-(1H-benzimidazol-1-yl)androsta-5,16-diene]
Full length AR
  AR down-regulation against full length AR: activity (AR down-regulation)

## C[C@]12CC[C@@H](n3ccnc3)CC1=CC[C@@H]1[C@@H]2CC[C@]2(C)C(n3cnc4ccccc43)=CC[C@@H]12 [VNPP433-3α, 3α-(1H-imidazol-1-yl)-17-(1H-benzimidazol-1-yl) androsta-5,16-diene]
LNCaP cells; [5]
  GI50: 8.91 µM
LNCaP cells; [11]
  GI50: 4.04 µM
Full length AR
  AR down-regulation against full length AR: activity (AR down-regulation)
CWR22Rv1; [10]
  GI50: 9.88 µM

## C[C@]12CC[C@H](n3ccnc3)CC1=CC[C@@H]1[C@@H]2CC[C@]2(C)C(n3cnc4ccccc43)=CC[C@@H]12 [VNPP433-3β, 3β-(1H-imidazol-1-yl)-17-(1H-benzimidazol-1-yl) androsta-5,16-diene]
LNCaP cells; [5]
  GI50: 1.64 µM
LNCaP cells; [11]
  GI50: 0.81 µM
LNCaP cells; [12]
  GI50: 1.64 µM
LNCaP cells; [6]
  GI50: 0.81 µM
Full length AR
  AR down-regulation against full length AR: activity (AR down-regulation)
CWR22Rv1; [10]
  GI50: 2.54 µM
CWR22Rv1; CWR22Rv1, Table 10
  GI50: 2.54 µM

## C[C@]12CCC3CC31[C@H](n1ccnc1)CC1C3CC=C(n4cnc5ccccc54)C3CCC12 (stereo partly drawn) [VNPP433-6β, 6β-imidazol-1yl-3,5-cycloandrostan-17-benzimidazole-1-yl-16-ene]
LNCaP cells; [5]
  GI50: 6.61 µM
Full length AR
  AR down-regulation against full length AR: activity (AR down-regulation)
CWR22Rv1; [10]
  GI50: 12.3 µM
